{
  "source": "patent US20230174649A1",
  "about": "“PHARMACEUTICAL COMPOSITIONS CONTAINING ANTI-CD47 ANTIBODIES” (I-MAB BIOPHARMA US LIMITED, priority 2020, published 2023)",
  "system": "Toledo Cells",
  "assay": "FACS-based phagocytosis assay, macrophages cocultured with Toledo cells",
  "type": "cell-based, Human",
  "method": "FACS-based phagocytosis assays were performed to evaluate the phagocytic abilities of macrophages.\nToledo Cells (a tumor cell line, as a target) were labelled with CellTrace™ Far Red and plated into 96-well plate at a density of 0.15×10^6 cells/well for 12 hours. The Macrophages were prepared as discussed above and then labelled with CellTrace Violet. Next, the macrophages were added into the plate as an effector at an effector:target (Toledo) ratio of 1:3, giving a final density of macrophages at 0.05×10^6 cells/well. Macrophages and tumor cells were cocultured for 2-6 h at 37° C. in the presence of the indicated treatments (small molecule therapeutic agents, CD47 antibody, CD20 antibody or combinations). The incubation time depending on the phagocytosis rate, expecting phagocytosis of 5-20% cells.\nThen, cells were acquired and data were analyzed.",
  "data": [
    {"smiles": "Nc1ncn([C@@H]2O[C@H](CO)[C@@H](O)[C@H]2O)c(=O)n1", "note": "[Azacitidine]", "values": [
      {"measurement": "macrophage phagocytosis (untreated = 1.00)", "setting": "Cpd 0.0016 uM, T4J = 0, R = 0", "value": 1.09},
      {"measurement": "macrophage phagocytosis (untreated = 1.00)", "setting": "Cpd 0.0016 uM, T4J = 0, R = 0.01 ug/ml", "value": 1.63},
      {"measurement": "macrophage phagocytosis (untreated = 1.00)", "setting": "Cpd 0.0016 uM, T4J = 0.1 ug/ml, R = 0", "value": 2.66},
      {"measurement": "macrophage phagocytosis (untreated = 1.00)", "setting": "Cpd 0.0016 uM, T4J = 0.1 ug/ml, R = 0.01 ug/ml", "value": 3.26},
      {"measurement": "macrophage phagocytosis (untreated = 1.00)", "setting": "Cpd 0.008 uM, T4J = 0, R = 0", "value": 1.07},
      {"measurement": "macrophage phagocytosis (untreated = 1.00)", "setting": "Cpd 0.008 uM, T4J = 0, R = 0.01 ug/ml", "value": 1.73},
      {"measurement": "macrophage phagocytosis (untreated = 1.00)", "setting": "Cpd 0.008 uM, T4J = 0.1 ug/ml, R = 0", "value": 2.69},
      {"measurement": "macrophage phagocytosis (untreated = 1.00)", "setting": "Cpd 0.008 uM, T4J = 0.1 ug/ml, R = 0.01 ug/ml", "value": 3.18},
      {"measurement": "macrophage phagocytosis (untreated = 1.00)", "setting": "Cpd 0.04 uM, T4J = 0, R = 0", "value": 1.12},
      {"measurement": "macrophage phagocytosis (untreated = 1.00)", "setting": "Cpd 0.04 uM, T4J = 0, R = 0.01 ug/ml", "value": 1.71},
      {"measurement": "macrophage phagocytosis (untreated = 1.00)", "setting": "Cpd 0.04 uM, T4J = 0.1 ug/ml, R = 0", "value": 2.76},
      {"measurement": "macrophage phagocytosis (untreated = 1.00)", "setting": "Cpd 0.04 uM, T4J = 0.1 ug/ml, R = 0.01 ug/ml", "value": 3.29},
      {"measurement": "macrophage phagocytosis (untreated = 1.00)", "setting": "Cpd 0.2 uM, T4J = 0, R = 0", "value": 1.16},
      {"measurement": "macrophage phagocytosis (untreated = 1.00)", "setting": "Cpd 0.2 uM, T4J = 0, R = 0.01 ug/ml", "value": 1.69},
      {"measurement": "macrophage phagocytosis (untreated = 1.00)", "setting": "Cpd 0.2 uM, T4J = 0.1 ug/ml, R = 0", "value": 2.57},
      {"measurement": "macrophage phagocytosis (untreated = 1.00)", "setting": "Cpd 0.2 uM, T4J = 0.1 ug/ml, R = 0.01 ug/ml", "value": 3.13},
      {"measurement": "macrophage phagocytosis (untreated = 1.00)", "setting": "Cpd 1 uM, T4J = 0, R = 0", "value": 1.30},
      {"measurement": "macrophage phagocytosis (untreated = 1.00)", "setting": "Cpd 1 uM, T4J = 0, R = 0.01 ug/ml", "value": 1.94},
      {"measurement": "macrophage phagocytosis (untreated = 1.00)", "setting": "Cpd 1 uM, T4J = 0.1 ug/ml, R = 0", "value": 2.70},
      {"measurement": "macrophage phagocytosis (untreated = 1.00)", "setting": "Cpd 1 uM, T4J = 0.1 ug/ml, R = 0.01 ug/ml", "value": 3.45},
      {"measurement": "phagocytic ability of macrophages", "setting": "agent itself or antibody combination", "value": "can also enhance the phagocytic ability of macrophages"},
      {"measurement": "phagocytic ability of macrophages", "setting": "triple combination: T4J, Rituximab and the small molecule", "value": "enhances the phagocytic ability of macrophages much higher"}
    ]}
  ]
}
